Test [1] relates to LTB4 and 5-HETE production. To be noted: in vitro; cited from earlier work.
For test [2], the system named is rheumatoid arthritis. To be noted: preliminary observation; cited from earlier work.
For test [3], the system named is psoriasis. To be noted: in vivo; cited from earlier work.
The test system of test [4] is lipoxygenase. Conditions: in vitro; cited from earlier work.
Test [5] relates to area of infarction following coronary occlusion. To be noted: dogs; cited from earlier work.
For test [6], the target named is T1, 5-lipoxygenase (Rattus norvegicus, UniProt P12527).
T1 construct: The activities of these enzymes in extracts of RBL-1 cells were assayed; host or cells: RBL-1 cells, supernatant of broken cell extract
T1 sequence (P12527 1-673): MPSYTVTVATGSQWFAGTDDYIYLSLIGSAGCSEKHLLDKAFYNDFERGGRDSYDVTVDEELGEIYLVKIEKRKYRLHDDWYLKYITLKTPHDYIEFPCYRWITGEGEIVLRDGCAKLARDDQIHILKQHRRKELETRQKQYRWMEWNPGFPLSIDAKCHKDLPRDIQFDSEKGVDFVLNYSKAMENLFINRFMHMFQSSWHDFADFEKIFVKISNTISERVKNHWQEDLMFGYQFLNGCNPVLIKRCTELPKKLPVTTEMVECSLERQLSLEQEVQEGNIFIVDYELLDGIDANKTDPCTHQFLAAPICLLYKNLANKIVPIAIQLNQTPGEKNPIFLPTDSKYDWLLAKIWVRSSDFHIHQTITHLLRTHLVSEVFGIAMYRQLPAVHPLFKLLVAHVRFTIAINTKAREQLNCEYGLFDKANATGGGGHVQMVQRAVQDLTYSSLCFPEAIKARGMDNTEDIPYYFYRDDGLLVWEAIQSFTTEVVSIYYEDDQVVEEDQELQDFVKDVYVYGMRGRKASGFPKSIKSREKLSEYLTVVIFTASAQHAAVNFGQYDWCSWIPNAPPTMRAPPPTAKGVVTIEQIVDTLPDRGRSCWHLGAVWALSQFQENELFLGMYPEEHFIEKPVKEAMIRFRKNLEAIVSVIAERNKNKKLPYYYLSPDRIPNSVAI
Kind of test: 5-lipoxygenase activity: LTB4 production by RBL-1 high speed supernatant. It counts as biochemical. To be noted: for IC50: RBL1 high speed supernatant, read-out: 5LO IC50 (LTB4 Production). The protocol:
(§1) For in vitro experiments, compounds were dissolved at appropriate concentrations in ethanol (final concentration μ1.0%) and then diluted to final concentrations using the buffers indicated in the text.
(§2) The activities of these enzymes in extracts of RBL-1 cells were assayed using the method of Jakschik and Lee, Nature, 287, 51-52 (1980). RBL-1 cells were obtained from the American Type Culture Collection (#CRL 1378) and were grown at 37° C. (5% CO2 in air) in spinner culture in MEM supplemented with 10% heat inactivated fetal calf serum. Harvested cells were washed with 50 mM sodium phosphate buffer, pH 7.0, containing 1 mM EDTA and 0.1% galatin, resuspended in fresh buffer (5×10^7 cells/ml) and disrupted by nitrogen cavitation using the Parr bomb at 750 psi for 10 min. The broken cell extract was then centrifuged at 10,000×g for 60 minutes (min). Aliquots (0.25 mls) of the supernatant were preincubated with or without drugs for 10 min, after which 10 μl CaCl2 (2 mM) of 2.5 mM arachidonic acid-1-^14 C (final concentration was […]; specific activity 20,000 dpm/nmole). After incubation for 5 min at […], the reaction was terminated by addition of 2 volumes (0.5 ml) ice cold acetone and the sample was allowed to deproteinize on ice for 10 min prior to centrifugation at 1,000×gfor 10 min. The deproteinized supernatant was adjusted to pH 3.5 with 2N formic acid and extracted with 2 volumes of ice cold ethyl acetate. The extracted samples were dried under argon, redissolved in ethyl acetate and applied to Whatman LK5D thin layer chromatography (TLC) plates which were developed using the A-9 solvent system [organic phase of ethyl acetate:2,2,5-trimethylpentane:acetic acid:water (110:50:20:10)] described by Hamberg and Samuelsson, J. Bio. Chem., 241, 257-263 (1966). Arachidonic acid, 5-HETE, LTB4 and PGD2 were quantified with a Berthold LB 2832 autoscanner.
(§3) Drug-induced effects on enzyme activities are described as the concentration of drug causing a 50% inhibition of metabolite synthesis (IC50).

The subject of test [7] is Arachidonic acid-induced ear swelling. The experiment in a line: Arachidonic acid-induced mouse ear inflammation (ear swelling). It counts as in vivo, male Balb/c mice. Conditions: for antiinflammatory activity (mouse ear edema): p.o. Here is the method: In the following Examples male Balb/c mice (20-28 g) were used. All mice were obtained from Charles River Breeding Laboratories, Kingston, N.Y. Within a single experiment, mice were sex and age matched.
The compounds of Formula (I), indomethacin, naproxen, and ibuprofen were each used as the free base. The compounds were homogenized in 0.5% tagacanth. Compounds were administered by gavage at the indicated dose in a final volume of 10 ml/kg. The compounds of Formula (I) were solubilized in dimethylacetamide and diluted with olive oil for subcantaneous administration.
Arachidonic acid in acetone (2 mg/20 μl) was applied to the inner surface of the left ear. The thickness of both ears was then measured with a dial micrometer one hour after treatment, and the […] were expressed as the change in thickness (10^-3 cm) between treated and untreated ears.
Test compounds were given orally in 0.5% tragacanth at the times indicated in the text prior to the topical application of arachidonic acid.
Parenteral administration of compound was accomplished by subcutaneous injection of solution as indicated.

The target in test [8] is T1, 5-lipoxygenase. Kind of test: 5-lipoxygenase activity: 5-HETE production by RBL-1 high speed supernatant. Type of test: biochemical. To be noted: RBL1 high speed supernatant; read-out: 5LO IC50 (5-HETE Production). Here is the method:
as §1, §2, §3

For test [9], the system named is Arachidonic acid-induced ear swelling. Kind of test: Arachidonic acid-induced mouse ear inflammation (ear swelling). It counts as in vivo, male Balb/c mice.
Test [10] relates to LTC4 production by human monocytes. The experiment in a line: LTC4 production by human monocytes. Type of test: cell-based. To be noted: Monocyte, A23187-stimulated, 3 hours, drug added 30 minutes prior. Here is the method:
as §1
One of the compounds of Formula (I), i.e., Compound Number 8 from Table 1, was evaluated for its ability to inhibit the production of LTC4 by human monocytes according to the following protocol.
Human monocytes were prepared from whole blood supplied by the American Red Cross. The blood was fractionated by a two-step procedure employing sedimentation on Ficoll followed by sedimentation on Percoll. The mononuclear cell fraction recovered was composed of 80-90% monocytes with the remainder of the cells being predominant lymphocytes. The monocytes were plated at 1×10^6 cells per well in a Costar 24 well tissue culture plat and allowed to adhere for one hour at 37° C. Non-adherent cells were removed by washing. The cells were stimulated with […] of A23187 calcium ionophore for 3 hours at 37° C. to induce LTC-4 produced when drugs were evaluated. They were added to the cells 30 minutes prior to the A23187. Supernatants were collected, clarified by centrifugation and store frozed at -20° C. until assay. The LTC-4 content was determined by using a New England Nuclear Leukotriene C-4 (^3 H) RIA Kit as per instructions.

Where [11] appears, read: 50 mg/kg s.c. or i.p., 2 mg arachidonic acid, 1 hour, * p .05, ** p .01, *** p .001.

Molecules are shown by their SMILES.

The term IC50 denotes the concentration at which inhibition is half-maximal.

As to `O=C(O)c1cc(/N=N/c2ccc(S(=O)(=O)Nc3ccccn3)cc2)ccc1O` [sulfasalazine], the “inhibition of LTB4 and 5-HETE production” value in test [1] was “inhibit LTB4 and 5-HETE production in vitro”. The “efficacy in rheumatoid arthritic patients” value in [2] is “efficacy, including remission”.
In the case of `CC(C(=O)O)c1ccc2oc(-c3ccc(Cl)cc3)nc2c1` (centres unmarked) [benoxaprofen], the effect on psoriasis entry in test [3] is given as “promising effect”. For the same compound, in [4], the lipoxygenase inhibitory activity entry is on record as “in vitro lipoxygenase inhibitory activity”.
As to `NC1=NN(c2cccc(C(F)(F)F)c2)CC1` [BW755-C], the “area of infarction following coronary occlusion” value in [5] is “reduced”.
`COc1ccc(-c2nc(NC#N)[nH]c2-c2ccc(OC)cc2)cc1` [Compound 4, 4,5-Bis(4-methoxyphenyl)-2-cyanamido-imidazole or 4,5-Bis(4-methoxyphenyl)-2-amino-1-cyano-imidazole]: the IC50 in test [6] turned out to be 1.5 µM; in [8], 3.1 µM. The “% Inhibition of Ear Swelling” value in test [7] (setting [11]) was 46%.
Take `Fc1ccc(-c2[nH]c(SC(F)(F)C(F)F)nc2-c2ccncc2)cc1` [Compound 9]: the IC50 in [8] was found to be 95 µM.
Consider `O=S(=O)(c1nc(-c2ccc(F)cc2)c(-c2ccc(F)cc2)[nH]1)C(F)(F)C(F)F` [Compound 2], for which the IC50 in test [6] was determined as 6.6 µM; in [8], 16 µM. Also, the “% Inhibition of Ear Swelling” value in test [7] (setting [11]) is on record as 41%.
With `CCSc1nc(-c2ccc(OC)cc2)c(-c2ccc(OC)cc2)n1CC` [Compound 3], the IC50 stood at 8.4 µM in test [6] and 10.4 µM in test [8].
Take `CC(C)Cc1ccc(C(C)C(=O)O)cc1` (centres unmarked) [ibuprofen, reference compound]: the “antiinflammatory activity (mouse ear edema)” value (shortened to “antiinflammatory activity”) in [7] (250 mg/kg) is on record as “did not exhibit detectable antiinflammatory activity”.
Regarding `COc1ccc(-c2nc(C(F)(F)F)[nH]c2-c2ccc(OC)cc2)cc1` [Compound 6], the IC50 was found to be 1.1 µM in [6] and 0.7 µM in test [8]. In addition, the “% Inhibition of Ear Swelling” value in [7] (50 mg/kg, oral dosing (p.o.), ** p .01) stood at 28%.
With `Fc1ccc(-c2nc(-c3ccc(F)cc3)c(-c3ccc(F)cc3)[nH]2)cc1` [Compound 7], the IC50 in test [6] and in [8] was 10 µM throughout. In addition, the “% Inhibition of Ear Swelling” value in test [7] (setting [11]) is 15%.
For the compound `COc1ccc2c(c1)c(CC(=O)O)c(C)n2C(=O)c1ccc(Cl)cc1` [indomethacin, reference compound], the “inhibition of 5-lipoxygenase products (RBL-1 extract)” value in test [6] (concentrations up to 10^-4 M) is “inactive”. Besides, in [9], the “reduction of cell infiltration (mouse ear model)” value is on record as “did not reduce inflammation or cell infiltration”. In test [7] (10 mg/kg), the “antiinflammatory activity” value was “did not exhibit detectable antiinflammatory activity”. Moreover, in test [7] (arachidonic acid-induced), the “reduction of inflammation (mouse ear model)” value was “did not reduce inflammation or cell infiltration”.
Regarding `COc1ccc(-c2nc(SC)n(C)c2-c2ccc(OC)cc2)cc1` [Compound 1], the IC50 in test [6] and in [8] was 13 µM throughout. Besides, the “% Inhibition of Ear Swelling” value in test [7] (setting [11]) turned out to be 51%.
Consider `Fc1ccc(-c2[nH]c(S)nc2-c2ccncc2)cc1` [Compound 8], for which the IC50 was 0.8 µM in test [10], 1.5 µM in [6] and 17 µM in [8].
As to `N#CNc1nc(-c2ccc(F)cc2)c(-c2ccc(F)cc2)[nH]1` [Compound 5, 4,5-Bis(4-fluorophenyl)-2-cyanamido-imidazole or 4,5-Bis(4-fluorophenyl)-2-amino-1-cyano-imidazole], the IC50 in [6] came to 1 µM; in [8] it was 8 µM. In test [7] (setting [11]), the “% Inhibition of Ear Swelling” value is 59%.
Turning to `COc1ccc2cc([C@H](C)C(=O)O)ccc2c1` [naproxen, reference compound], the “antiinflammatory activity” value in [7] (100 mg/kg) is recorded as “did not exhibit detectable antiinflammatory activity”.

Source of the values: US4686231A, “Inhibition of 5-lipoxygenase products” (SmithKline Beckman Corporation, priority 1986, dated 1987).
